The experiment relates to L. plantarum. In words: Development of resistance test (10 week duration). In kind it is cell-based. The conditions noted are these: 10 week duration of the test. An excerpt:
One very effective control program involves the introduction of pristinamycin-type antimicrobial agents, and particularly virginiamycin, to the process. […] Usually, the “waste” byproduct, known as “Dried Distillers Grains with Solubles (DDGS), is sold as animal feed, going 45% to dairy, 35% to beef, 15% to swine, and 5% to poultry industries. This is an important factor in the profitability of an ethanol production process, and the total amount of this byproduct produced per year is on the order of 3.5 million metric tons per year. The presence of residual antimicrobial agents in this material can adversely affect the value of this byproduct, as small residual amounts of antimicrobial agents in feed will promote the development of agent-resistant microorganisms. We have tested DDGS samples from 8 major ethanol producers using virginiamycin to control microorganisms and found no detectable amount of virginiamycin in the DDGS (<1 ppm via the validated Eurofins analysis and <1 ppb via an unvalidated experimental analytical procedure). […] Generally, however, the virginiamycin in mash is destroyed by drying so virginiamycin must be re-added to the feed if so desired. Other effective control agents include polyether ionophore-type antimicrobial agents, which provide many of the benefits obtained with pristinamycin-type antimicrobial agents. […]

For virginiamycin, the “Time until L. plantarum developed resistance” value was “no development of resistance”.
